Patent US11071735B2, “Treatment of inflammatory conditions and autoimmune diseases with glucose uptake inhibitors” (Kadmon Corporation, LLC, priority 2017, dated 2021)

Assays:
Assay type in all cases: cell-based
[1] = target: T1, GLUT1 (Homo sapiens, UniProt P11166); assay: glycolysis assay in DLD1 WT cells (rely on GLUT1); details: DLD1-WT cells; 10 μM oligomycin, one hour
T1 construct: endogenous in cells; host or cells: DLD1 WT cancer cells
T1 sequence (P11166 1-492): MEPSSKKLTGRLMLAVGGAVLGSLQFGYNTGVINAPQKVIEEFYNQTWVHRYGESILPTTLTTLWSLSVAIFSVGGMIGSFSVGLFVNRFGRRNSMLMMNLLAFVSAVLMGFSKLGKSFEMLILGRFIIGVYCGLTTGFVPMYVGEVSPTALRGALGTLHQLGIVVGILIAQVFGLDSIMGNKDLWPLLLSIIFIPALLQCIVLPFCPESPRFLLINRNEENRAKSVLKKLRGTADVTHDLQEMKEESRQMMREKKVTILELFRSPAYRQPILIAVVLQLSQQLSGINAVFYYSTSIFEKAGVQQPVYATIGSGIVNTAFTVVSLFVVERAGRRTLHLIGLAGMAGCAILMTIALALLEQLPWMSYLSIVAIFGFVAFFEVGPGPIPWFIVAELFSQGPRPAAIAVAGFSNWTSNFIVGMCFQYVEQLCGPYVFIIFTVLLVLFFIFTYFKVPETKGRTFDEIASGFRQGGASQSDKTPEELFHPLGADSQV
Procedure: (§1) Cells were treated with GLUT inhibitors plus oligomycin and subsequently ATP levels were determined using Cell Titer Glo. […] FIG. 1B reports the IC50 of glycolysis inhibition for selected compounds.
(§2) Accordingly, we have investigated the use of inhibitors of GLUT transporters against activated pro-inflammatory immune cells, including but not limited to activated human CD4+ T cells. In order to understand what GLUT transporters are required to sustain glycolysis in activated T cells, we first utilized the syngeneic cancer cell lines DLD1 WT and DLD GLUT1−/− that rely on GLUT1 and GLUT3 expression, respectively, for glucose transport. Within this system, we have identified small molecules that simultaneously have the property of inhibiting both GLUT1 and GLUT3 mediated glucose transport. In addition, we have confirmed the GLUT1-selective nature of a published small molecule inhibitor of GLUT1 (Chem Med Chem. 2016 Oct. 19; 11(20):2261-2271).
(§3) Determination of glucose uptake/GLUT activity (glycolysis assay): HT1080 cells, DLD1 cells (WT and GLUT1−/−) and human CD4+ T cells were plated in 96-well plates. Cells were exposed to the combination of 10 μM Oligomycin (to block mitochondrial-derived ATP) and the glucose uptake inhibitors disclosed herein for one-hour, after which glycolytically-derived ATP was measured with the Cell Titer-Glo assay kit (Promega). Dose-response curves of the glucose uptake inhibitors disclosed herein were used to determine the IC50 for GLUT activity.

[2] = target: T2, GLUT3 (Homo sapiens, UniProt P11169); assay: glycolysis assay in DLD1 GLUT1−/− cells (rely on GLUT3); details: DLD1-KO (GLUT1−/−) cells; 10 μM oligomycin, one hour
T2 construct: endogenous in cells; host or cells: DLD1 GLUT1−/− (knock-out) cancer cells
T2 sequence (P11169 1-496): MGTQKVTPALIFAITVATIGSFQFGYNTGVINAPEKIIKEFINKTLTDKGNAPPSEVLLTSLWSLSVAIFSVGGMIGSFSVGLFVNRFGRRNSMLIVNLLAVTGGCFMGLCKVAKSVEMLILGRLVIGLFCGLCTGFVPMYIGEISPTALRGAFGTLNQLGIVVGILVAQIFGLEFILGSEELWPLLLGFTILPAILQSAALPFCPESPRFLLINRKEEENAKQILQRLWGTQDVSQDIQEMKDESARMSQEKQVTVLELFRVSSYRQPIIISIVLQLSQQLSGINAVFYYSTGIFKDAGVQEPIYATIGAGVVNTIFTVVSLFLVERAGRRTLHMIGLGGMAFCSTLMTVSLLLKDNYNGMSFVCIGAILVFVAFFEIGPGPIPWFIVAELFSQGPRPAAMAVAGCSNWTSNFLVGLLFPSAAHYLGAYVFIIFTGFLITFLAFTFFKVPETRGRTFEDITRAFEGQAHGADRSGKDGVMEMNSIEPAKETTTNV
Procedure: as §1, §2, §3

[3] = system: GLUT; assay: glycolysis assay (oligomycin + Cell Titer-Glo ATP readout) in HT1080 cells; details: 10 μM oligomycin, one hour, glycolytically-derived ATP
Source text: The combination of inhibitors of both oxidative phosphorylation and glycolysis synergistically suppress cellular ATP levels. Therefore, our assay utilizes the combination of our glucose uptake inhibitors with oligomycin, a well-characterized inhibitor of ATP synthase. Because oligomycin inhibits ATP derived from oxidative phosphorylation, any remaining ATP production is derived from glycolysis. By reading out cellular ATP levels using the Promega
Titer Glo kit, we can assess the extent of glycolysis inhibition by our glucose uptake inhibitors. Using this experimental set-up in HT1080 cancer cells, we determined the IC50 of glycolysis inhibition for the compounds.
as §3

Structure (SMILES) | IC50 [1] | IC50 [2] | IC50 [3]
CCC(C)NC(=O)COc1cccc(-c2nc(Nc3ccc(-c4cn[nH]c4)cc3)c3cc(OC)ccc3n2)c1 (stereo not drawn) [Ex. 22, 2-(3-(4-((4-(1H-pyrazol-4-yl)phenyl)amino)-6-methoxyquinazolin-2-yl)phenoxy)-N-(sec-butyl)acetamide] | 105 nM | 66.8 nM | 112 nM
COc1ccc2nc(-c3cccc(OCC(=O)NC(CF)CF)c3)nc(Nc3ccc(-c4cn[nH]c4)cc3)c2c1 [Ex. 23, 2-(3-(4-((4-(1H-pyrazol-4-yl)phenyl)amino)-6-methoxyquinazolin-2-yl)phenoxy)-N-(1,3-difluoropropan-2-yl)acetamide] | 463 nM | 110 nM | 258 nM
CCOc1ccc2nc(-c3cccc(OCC(=O)NCC(F)(F)F)c3)nc(Nc3ccc(-c4cn[nH]c4)cc3)c2c1 [Ex. 24, 2-(3-(4-((4-(1H-pyrazol-4-yl)phenyl)amino)-6-ethoxyquinazolin-2-yl)phenoxy)-N-(2,2,2-trifluoroethyl)acetamide] | 801 nM | 86 nM | 454 nM
COc1ccc2nc(-c3cccc(OCC(=O)NCC(F)(F)F)c3)nc(Nc3ccc(-c4cn[nH]c4)cc3)c2c1 [Ex. 25, 2-(3-(4-((4-(1H-pyrazol-4-yl)phenyl)amino)-6-methoxyquinazolin-2-yl)phenoxy)-N-(2,2,2-trifluoroethyl)acetamide] | 1070 nM | 68.4 nM | 433 nM
CCOc1ccc2nc(-c3cccc(OCC(=O)NC(C)(C)C)c3)nc(Nc3ccc(-c4cc[nH]n4)cc3)c2c1 [Ex. 27, 2-(3-(4-((4-(1H-Pyrazol-3-yl)phenyl)amino)-6-ethoxyquinazolin-2-yl)phenoxy)-N-(tert-butyl)acetamide] | 252 nM | 116 nM | 310 nM
CCOc1ccc2nc(-c3cccc(OCC(=O)NC(C)C)c3)nc(Nc3ccc(-c4cc[nH]n4)cc3)c2c1 [Ex. 28, 2-(3-(4-((4-(1H-Pyrazol-3-yl)phenyl)amino)-6-ethoxyquinazolin-2-yl)phenoxy)-N-isopropylacetamide] | 496 nM | 105 nM | 545 nM
CC(C)(C)NC(=O)COc1cccc(-c2nc(Nc3ccc(-c4cn[nH]c4)cc3)c3cc(F)ccc3n2)c1 [Ex. 29, 2-(3-(4-((4-(1H-Pyrazol-4-yl)phenyl)amino)-6-fluoroquinazolin-2-yl)phenoxy)-N-(tert-butyl)acetamide] | 124 nM | 142 nM | 123 nM
CC(C)(C)NC(=O)COc1cccc(-c2nc(Nc3ccc(-c4cn[nH]c4)cc3)c3ccc(F)cc3n2)c1 [Ex. 30, 2-(3-(4-((4-(1H-Pyrazol-4-yl)phenyl)amino)-7-fluoroquinazolin-2-yl)phenoxy)-N-(tert-butyl)acetamide] | 624 nM | 195 nM | 425 nM
COCCOc1ccc2nc(-c3cccc(OCC(=O)NC(C)C)c3)nc(Nc3ccc(-c4cn[nH]c4)cc3)c2c1 [Ex. 31, 2-(3-(4-((4-(1H-Pyrazol-4-yl)phenyl)amino)-6-(2-methoxyethoxy)quinazolin-2-yl)phenoxy)-N-isopropylacetamide] | 62.1 nM | 59.2 nM | 53.5 nM
CCCOc1ccc2nc(-c3cccc(OCC(=O)NC(C)C)c3)nc(Nc3ccc(-c4cn[nH]c4)cc3)c2c1 [Ex. 32, 2-(3-(4-((4-(1H-Pyrazol-4-yl)phenyl)amino)-6-propoxyquinazolin-2-yl)phenoxy)-N-isopropylacetamide] | 178 nM | 305 nM | 188 nM
CC(C)NC(=O)COc1cccc(-c2nc(Nc3ccc(-c4cn[nH]c4)cc3)c3cc(F)ccc3n2)c1 [Ex. 33, 2-(3-(4-((4-(1H-pyrazol-4-yl)phenyl)amino)-6-fluoroquinazolin-2-yl)phenoxy)-N-isopropylacetamide] | 802 nM | 183 nM | 424 nM
CC(C)NC(=O)COc1cccc(-c2nc(Nc3ccc(-c4cn[nH]c4)cc3)c3ccc(F)cc3n2)c1 [Ex. 34, 2-(3-(4-((4-(1H-Pyrazol-4-yl)phenyl)amino)-7-fluoroquinazolin-2-yl)phenoxy)-N-isopropylacetamide] | 797 nM | 197 nM | 418 nM
CCOc1ccc2nc(-c3cccc(OCC(=O)N[C@@H](C)CC)c3)nc(Nc3ccc(-c4cn[nH]c4)cc3)c2c1 [Ex. 35, (S)-2-(3-(4-((4-(1H-Pyrazol-4-yl)phenyl)amino)-6-ethoxyquinazolin-2-yl)phenoxy)-N-(sec-butyl)acetamide] | 130 nM | 94.2 nM | 134 nM
CCOc1ccc2nc(-c3cccc(OCC(=O)N[C@H](C)CC)c3)nc(Nc3ccc(-c4cn[nH]c4)cc3)c2c1 [Ex. 36, (R)-2-(3-(4-((4-(1H-Pyrazol-4-yl)phenyl)amino)-6-ethoxyquinazolin-2-yl)phenoxy)-N-(sec-butyl)acetamide] | 116 nM | 130 nM | 137 nM
CCCOc1ccc2nc(-c3cccc(OCC(=O)NC(C)(C)C)c3)nc(Nc3ccc(-c4cn[nH]c4)cc3)c2c1 [Ex. 37, 2-(3-(4-((4-(1H-Pyrazol-4-yl)phenyl)amino)-6-propoxyquinazolin-2-yl)phenoxy)-N-(tert-butyl)acetamide] | 89.3 nM | 158 nM | 128 nM
CC(C)(C)NC(=O)COc1cccc(-c2nc(Nc3ccc(-c4cn[nH]c4)cc3)c3cc(OCCF)ccc3n2)c1 [Ex. 38, 2-(3-(4-((4-(1H-Pyrazol-4-yl)phenyl)amino)-6-(2-fluoroethoxy)quinazolin-2-yl)phenoxy)-N-(tert-butyl)acetamide] | 65.7 nM | 51.5 nM | 60.8 nM
COCCOc1ccc2nc(-c3cccc(OCC(=O)NC(C)(C)C)c3)nc(Nc3ccc(-c4cn[nH]c4)cc3)c2c1 [Ex. 39, 2-(3-(4-((4-(1H-Pyrazol-4-yl)phenyl)amino)-6-(2-methoxyethoxy)quinazolin-2-yl)phenoxy)-N-(tert-butyl)acetamide] | 40.6 nM | 34.2 nM | 34.1 nM
CC(C)NC(=O)COc1cccc(-c2nc(Nc3ccc(-c4cn[nH]c4)cc3)c3cc(OCCF)ccc3n2)c1 [Ex. 40, 2-(3-(4-((4-(1H-Pyrazol-4-yl)phenyl)amino)-6-(2-fluoroethoxy)quinazolin-2-yl)phenoxy)-N-isopropylacetamide] | 160 nM | 68.3 nM | 98 nM
CC(C)NC(=O)COc1cccc(-c2nc(Nc3ccc(-c4cn[nH]c4)cc3)c3cc(OC(C)C)ccc3n2)c1 [Ex. 41, 2-(3-(4-((4-(1H-pyrazol-4-yl)phenyl)amino)-6-isopropoxyquinazolin-2-yl)phenoxy)-N-isopropylacetamide] | 48.8 nM | 191 nM | 107 nM
CCC(C)NC(=O)COc1cccc(-c2nc(Nc3ccc(-c4cn[nH]c4)cc3)c3cc(OCCOC)ccc3n2)c1 (stereo not drawn) [Ex. 42, 2-(3-(4-((4-(1H-pyrazol-4-yl)phenyl)amino)-6-(2-methoxyethoxy)quinazolin-2-yl)phenoxy)-N-(sec-butyl)acetamide] | 30.7 nM | 41.6 nM | 31.2 nM
